Reference: ChEMBL document CHEMBL2385071, “Synthesis and biological investigation of coumarin piperazine (piperidine) derivatives as potential multireceptor atypical antipsychotics” (J Med Chem, 2013)

Key:
[1] = biological target: T1, 5-hydroxytryptamine receptor 2A (Homo sapiens, UniProt P28223)
Description: Antagonist activity at 5HT2A receptor (unknown origin) expressed in CHOK1 cells coexpressing Galpha15 assessed as inhibition of agonist-induced response incubated for 60 mins in incubator followed by 15 mins at room temperature by FLIPR assay

[2] = biological target: T1, 5-hydroxytryptamine receptor 2A; test: Antagonist activity at 5HT2A receptor (unknown origin) expressed in CHOK1 cells coexpressing Galpha15 assessed as inhibition of agonist-induced response at 10 uM incubated for 60 mins in incubator followed by 15 mins at room temperature by FLIPR assay relative to control; assay type: cell-based; details: CHO-K1
[3] = biological target: T2, D(2) dopamine receptor (Homo sapiens, UniProt P14416); test: Agonist activity at dopamine D2 receptor (unknown origin) expressed in CHOK1 cells coexpressing Galpha15 at 10 uM by FLIPR assay relative to control; assay type: cell-based; details: CHO-K1
T2 sequence (P14416 whole entry): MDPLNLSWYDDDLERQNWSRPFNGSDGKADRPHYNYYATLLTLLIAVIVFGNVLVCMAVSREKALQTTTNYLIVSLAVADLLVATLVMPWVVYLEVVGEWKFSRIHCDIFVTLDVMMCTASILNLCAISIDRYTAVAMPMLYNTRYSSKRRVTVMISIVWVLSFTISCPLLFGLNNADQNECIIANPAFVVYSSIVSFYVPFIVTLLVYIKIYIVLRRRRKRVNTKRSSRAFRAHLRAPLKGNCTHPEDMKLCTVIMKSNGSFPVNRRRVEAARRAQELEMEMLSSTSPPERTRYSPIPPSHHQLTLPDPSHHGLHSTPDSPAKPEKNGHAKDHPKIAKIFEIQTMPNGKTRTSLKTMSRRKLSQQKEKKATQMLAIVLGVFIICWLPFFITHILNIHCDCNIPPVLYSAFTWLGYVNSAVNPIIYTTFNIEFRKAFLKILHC

[4] = biological target: T2, D(2) dopamine receptor
[5] = test system: Mus musculus
Description: Antipsychotic activity in po dosed mouse assessed as reduction in apomorphine-induced climbing behavior administered for 30 mins prior to apomorphine-challenge measured at 10 to 30 mins post-dose

[6] = in vivo; details: mouse, po
[7] = biological target: T3, 5-hydroxytryptamine receptor 1A (Homo sapiens, UniProt P08908)
T3 sequence (P08908 whole entry): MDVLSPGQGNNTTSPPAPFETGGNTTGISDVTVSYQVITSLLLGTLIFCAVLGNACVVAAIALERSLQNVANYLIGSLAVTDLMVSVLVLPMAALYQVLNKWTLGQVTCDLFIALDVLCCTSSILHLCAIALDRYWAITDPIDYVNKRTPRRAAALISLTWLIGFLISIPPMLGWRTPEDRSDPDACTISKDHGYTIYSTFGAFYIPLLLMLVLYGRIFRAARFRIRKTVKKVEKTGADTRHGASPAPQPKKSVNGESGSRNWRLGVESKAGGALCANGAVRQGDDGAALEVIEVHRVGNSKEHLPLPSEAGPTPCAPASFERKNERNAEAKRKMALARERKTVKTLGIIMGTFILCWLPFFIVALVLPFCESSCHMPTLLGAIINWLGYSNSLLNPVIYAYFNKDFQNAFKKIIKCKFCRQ
Description: Antagonist activity at 5HT1A receptor (unknown origin) expressed in CHOK1 cells coexpressing Galpha15 assessed as inhibition of agonist-induced response incubated for 60 mins in incubator followed by 15 mins at room temperature by FLIPR assay

[8] = test system: Mus musculus; test: Toxicity in mouse assessed as effect on serum prolactin level at 0.3 to 2.7 mg/kg, po for 28 days measured 180 mins after last treatment by enzyme immunoassay; assay type: organism-based; set-up: dose 0.3-2.7 mg/kg, route oral; details: in vivo, 3 h
[9] = AUC (0 to 12 hrs) in rat at 12 mg/kg, po by HPLC-MS analysis; assay type: ADME, organism-based; set-up: time < 12 hr, dose 12 mg/kg, route oral; details: plasma
[10] = biological target: D(3) dopamine receptor (Homo sapiens, UniProt P35462)
D(3) dopamine receptor, sequence (P35462 whole entry): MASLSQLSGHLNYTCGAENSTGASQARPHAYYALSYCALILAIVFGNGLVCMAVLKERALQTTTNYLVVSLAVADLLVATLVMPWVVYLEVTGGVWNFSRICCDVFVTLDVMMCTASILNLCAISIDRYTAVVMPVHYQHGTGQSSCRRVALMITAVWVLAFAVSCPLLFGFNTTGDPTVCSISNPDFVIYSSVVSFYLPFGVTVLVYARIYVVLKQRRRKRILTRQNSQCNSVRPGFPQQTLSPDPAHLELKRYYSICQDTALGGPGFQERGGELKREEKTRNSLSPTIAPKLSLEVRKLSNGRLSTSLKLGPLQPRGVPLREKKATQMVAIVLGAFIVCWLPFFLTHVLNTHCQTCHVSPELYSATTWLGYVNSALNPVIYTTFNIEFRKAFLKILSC

[11] = biological target: T1, 5-hydroxytryptamine receptor 2A; test: Agonist activity at 5HT2A receptor (unknown origin) expressed in CHOK1 cells coexpressing Galpha15 at 10 uM by FLIPR assay relative to control; assay type: cell-based; details: CHO-K1
[12] = AUC (0 to infinity) in rat at 5 mg/kg, iv by HPLC-MS analysis; assay type: ADME, organism-based; set-up: time infinity, dose 5 mg/kg, route intravenous; details: plasma
[13] = test system: Rattus norvegicus; test: Antipsychotic activity in po dosed rat assessed as reduction in conditioned avoidance response after 60 mins; assay type: functional
[14] = AUC (0 to 12 hrs) in rat at 5 mg/kg, iv by HPLC-MS analysis; assay type: ADME, organism-based; set-up: time < 12 hr, dose 5 mg/kg, route intravenous; details: plasma
[15] = test system: Mus musculus; test: Toxicity in po dosed mouse assessed as induction of catalepsy; assay type: organism-based; details: in vivo
[16] = biological target: T2, D(2) dopamine receptor; test: Antagonist activity at dopamine D2 receptor (unknown origin) expressed in CHOK1 cells coexpressing Galpha15 assessed as inhibition of agonist-induced response at 10 uM incubated for 60 mins in incubator followed by 15 mins at room temperature by FLIPR assay relative to control; assay type: cell-based; details: CHO-K1
[17] = Half life in rat at 5 mg/kg, iv by HPLC-MS analysis; assay type: ADME, organism-based; set-up: dose 5 mg/kg, route intravenous; details: in vivo
[18] = AUC (0 to infinity) in rat at 12 mg/kg, po by HPLC-MS analysis; assay type: ADME, organism-based; set-up: time infinity, dose 12 mg/kg, route oral; details: plasma
[19] = test system: Mus musculus; test: Toxicity in mouse assessed as weight gain at 0.3 to 2.7 mg/kg, po for 28 days; assay type: organism-based; set-up: dose 0.3-2.7 mg/kg, route oral; details: in vivo, 672 h
[20] = Cmax in rat at 12 mg/kg, po by HPLC-MS analysis; assay type: ADME, organism-based; set-up: dose 12 mg/kg, route oral; details: in vivo
[21] = test system: Rattus norvegicus; test: Toxicity in rat assessed as QT interval prolongation/cardiac liability at 5 to 60 mg/kg, po by electrophysiology assay; assay type: organism-based; set-up: dose 5-60 mg/kg, route oral; details: in vivo
[22] = species on record: Mus musculus; test: animal or person; details: po

T1 sequence (P28223 whole entry): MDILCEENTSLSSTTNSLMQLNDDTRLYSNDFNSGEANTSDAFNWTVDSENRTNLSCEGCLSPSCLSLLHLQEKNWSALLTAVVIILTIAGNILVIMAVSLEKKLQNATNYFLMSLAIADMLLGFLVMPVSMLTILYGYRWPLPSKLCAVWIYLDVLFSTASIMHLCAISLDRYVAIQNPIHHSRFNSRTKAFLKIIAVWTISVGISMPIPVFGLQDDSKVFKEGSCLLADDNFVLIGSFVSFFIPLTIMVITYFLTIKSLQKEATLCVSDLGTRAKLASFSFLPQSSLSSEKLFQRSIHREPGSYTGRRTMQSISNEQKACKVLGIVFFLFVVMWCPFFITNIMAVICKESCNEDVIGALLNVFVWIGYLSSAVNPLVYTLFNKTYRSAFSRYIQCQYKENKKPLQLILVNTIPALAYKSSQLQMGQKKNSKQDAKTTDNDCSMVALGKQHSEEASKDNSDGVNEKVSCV

## Cc1cc(=O)oc2c(Cl)c(OCCCCN3CCC(c4noc5cc(F)ccc45)CC3)ccc12
[1]
  IC50: 39.2 nM
[2]
  inhibition: 99.1%
[3]
  Activity: 2%
[4]
  IC50: 26.3 nM
[5]
  Activity: Dose-dependent effect
[6]
  selectivity ratio: 221
[7]
  IC50: 11.8 nM
[8]
  Activity: Non-toxic
[9]
  AUC(0-t) at 12 h: 644 ng·h/mL
[10]
  IC50: 24.8 nM
[11]
  Activity: 10%
[12]
  AUC(0-inf): 914 ng·h/mL
[13]
  Activity: Dose-dependent effect
[13]; 1 h
  ED50: 6.5 mg/kg
[14]
  AUC(0-t) at 12 h: 822 ng·h/mL
[15]
  ED50: 70.85 mg/kg
[16]
  inhibition: 101%
[17]
  half-life: 5 h
[18]
  AUC(0-inf): 703 ng·h/mL
[19]
  Activity: Non-toxic
[20]
  Cmax: 72.1 ng/mL
[21]
  Activity: Non-toxic
[22]
  ED50: 0.32 mg/kg
